US12390437B2, “Itaconic acid derivatives and uses thereof intreating an inflammatory disease or a disease associated with an undesirable immune response” (Sitryx Therapeutics Limited, priority 2019, dated 2025)
Read-outs that look alike come from different tables or passages of the source.

What was measured:
[1] = system: IL-1β cytokine output from THP-1s; experiment: THP-1 AlphaLISA IL-1β cytokine assay; type: cell-based, human; conditions: read-out: IL-1β (IC50)
Protocol: Measuring Inhibitory Effects on IL-1β and IL-6 Cytokine Output from THP-1s
The cytokine inhibition profiles of compounds of formula (IW-1) were determined in a differentiated THP-1 cell assay. All assays were performed in RPMI-1640 growth medium (Gibco), supplemented with 10% fetal bovine serum (FBS; Gibco), 1% penicillin-streptomycin and 1% sodium pyruvate unless specified otherwise. The IL-1β and IL-6 cytokine inhibition assays were each run in a background of differentiated THP-1 cells as described below. All reagents described were from Sigma-Aldrich unless specified otherwise. Compounds were prepared as 10 mM DMSO stocks.
THP-1 cells were expanded as a suspension up to 80% confluence in appropriate growth medium. Cells were harvested, suspended, and treated with an appropriate concentration of phorbol 12-myristate 13-acetate (PMA) over a 72 hr period (37° C./5% CO2).
Following 72 hrs of THP-1 cell incubation, cellular medium was removed and replaced with fresh growth media containing 1% of FBS. Working concentrations of compounds were prepared separately in 10% FBS treated growth medium and pre-incubated with the cells for 30 minutes (37° C./5% CO2). Following the 30 minute compound pre-incubation, THP-1s were treated with an appropriate concentration of LPS and the THP-1s were subsequently incubated for a 24 hr period (37° C./5% CO2). An appropriate final concentration of Nigericin was then dispensed into the THP-1 plates and incubated for 1 hour (37° C./5% CO2) before THP-1 supernatants were harvested and collected in separate polypropylene 96-well holding plates.
Reagents from each of the IL-1β and IL-6 commercial kits (Perkin Elmer) were prepared and run according to the manufacturer's instructions. Subsequently, fluorescence signal detection in a microplate reader was measured (EnVision® Multilabel Reader, Perkin Elmer).
Percentage inhibition was calculated per cytokine by normalising the sample data to the high and low controls used within each plate (+/−LPS respectively). Percentage inhibition was then plotted against compound concentration and the 50% inhibitory concentration (IC50) was determined from the resultant concentration-response curve.

NRF2 = NRF2 +/-GSH activation assay (DiscoverX PathHunter NRF2 translocation kit, U2OS cells); type: cell-based; conditions: for Emax: read-out: NRF2 activation Emax; for EC50: read-out: NRF2 activation EC50
Protocol: Measuring Compound Activation Effects on the Anti-Inflammatory Transcription Factor NRF2 in DiscoverX PathHunter NRF2 Translocation Kit
Potency and efficacy of compounds of formula (IW-1) against the target of interest to activate NRF2 (nuclear factor erythroid 2-related factor 2) were determined using the PathHunter NRF2 translocation kit (DiscoverX). The NRF2 translocation assay was run using an engineered recombinant cell line, utilising enzyme fragment complementation to determine activation of the Keap1-NRF2 protein complex and subsequent translocation of NRF2 into the nucleus. Enzyme activity was quantified using a chemiluminescent substrate consumed following the formation of a functional enzyme upon PK-tagged NRF2 translocation into the nucleus.
The assay was run under either +/−GSH (glutathione) conditions to determine the attenuating activities of GSH against target compounds.
Additionally, a defined concentration of dimethyl fumarate was used as the ‘High’ control to normalise test compound activation responses to.
U2OS PathHunter eXpress cells were thawed from frozen prior to plating. Following plating, U2OS cells were incubated for 24 hrs (37° C./5% CO2) in commercial kit provided cell medium.
Following 24 hrs of U2OS incubation, cells were directly treated with an appropriate final concentration of compound, for −GSH conditions, or for +GSH conditions, an intermediate plate containing 6× working concentrations of compound stocks was prepared in a 6 mM working concentration of GSH solution (solubilised in sterile PBS). Following a 30 minute compound-GSH pre-incubation (37° C./5% CO2) for +GSH treatment, plated U2OS cells were incubated with an appropriate final concentration of compound and GSH.
Following compound (+/−GSH) treatment, the U2OS plates were incubated for a further 6 hours (37° C./5% CO2) before detection reagent from the PathHunter NRF2 commercial kit was prepared and added to test plates according to the manufacturer's instructions. Subsequently, the luminescence signal detection in a microplate reader was measured (PHERAstar®, BMG Labtech).
Percentage activation was calculated by normalising the sample data to the high and low controls used within each plate (+/−DMF). Percentage activation/response was then plotted against compound concentration and the 50% activation concentration (EC50) was determined from the plotted concentration-response curve.

[2] = Mouse pharmacokinetic study, oral administration; type: in vivo; conditions: male, C57BL/6, mouse, plasma, po, 100 mg/kg, plasma, male C57BL/6 mice, oral gavage 100 mg/kg
Protocol: (§1) Pharmacokinetic studies were carried out in 6-8-week-old male C57BL/6 mice having free access to food and water. Intravenous dosing was conducted at 10 mg/kg (5 mL/kg; vehicle: 10% DMSO-90% (25% HP-13-CD in water)) via tail vein injection, with sampling at 3 min, 8 min, 15 min, 30 min, 1, 2, 4, 6 and 8 hours, i.e., 9 time points in total (N=3/time point), using semi-serial bleeding for plasma. Oral compound administration, via gavage, was carried out at 100 mg/kg (10 mL/kg; vehicle: 5% DMSO-95% (0.5% HPMC+0.1% Tween 80 in water)), with sampling at 5 min, 15 min, 30 min, 1, 2, 4, 6, 8 and 24 hours, i.e., 9 time points in total (N=3/time point), using semi-serial bleeding for plasma.
(§2) For both intravenous and oral routes, the mice were restrained manually at the designated time points, with ca. 110 μL of blood being taken into K2EDTA tubes via the facial vein. Blood samples were put on ice and centrifuged to obtain plasma samples from which the concentration at each time point was measured by LC-MS/MS.

[3] = Mouse pharmacokinetic study, intravenous dosing; type: in vivo; conditions: male, C57BL/6, mouse, iv, plasma, 10 mg/kg i.v., read-out: Parent compound concentration following intravenous administration
Protocol: as §1, §2

[4] = Homo sapiens, THP-1, PMA-differentiated THP-1 cells, LPS 24 hr then Nigericin 1 hour
[5] = Homo sapiens, U2OS, normalised to dimethyl fumarate 'High' control, GSH condition not stated in Table 5
[6] = Homo sapiens, U2OS PathHunter cells, 6 hours, GSH condition not stated in Table 5

Row | Structure (SMILES) | IC50 [1, 4] [µM] | Emax (NRF2; [5]) [%] | EC50 (NRF2; [6]) [µM] | further results
1 | C=C(CC(=O)OC1CCCCC1)C(=O)OC1CCN(S(C)(=O)=O)CC1 [Example 75, 4-cyclohexyl 1-(1-(methylsulfonyl)piperidin-4-yl) 2-methylenesuccinate] | 11.2 | 143 | 17.5 | –
2 | C=C(CC(=O)OCCCCCC)C(=O)OCCc1nnn[nH]1 [Example 78, 1-(2-(1H-tetrazol-5-yl)ethyl) 4-hexyl 2-methylenesuccinate] | 4.2 | 177 | 17.7 | –
3 | C=C(CC(=O)OCCCOc1ccccc1)C(=O)OCC(=O)O [Example 95, 2-((2-methylene-4-oxo-4-(3-phenoxypropoxy)butanoyl)oxy)acetic acid] | 80.6 | 122 | 36.5 | –
4 | C=C(CC(=O)OC1CCCCCCC1)C(=O)OC(C(=O)O)C(F)(F)F (stereo not shown) [Example 122, 2-((4-(cyclooctyloxy)-2-methylene-4-oxobutanoyl)oxy)-3,3,3-trifluoropropanoic acid] | 13 | 178 | 17.5 | –
5 | C=C(CC(=O)OC1CCCCC1)C(=O)OCCc1nnn[nH]1 [Example 128, 1-(2-(1H-tetrazol-5-yl)ethyl) 4-cyclohexyl 2-methylenesuccinate] | 32.7 | 104 | 38 | –
6 | C=C(CC(=O)OC1CCCCCCC1)C(=O)OCCc1nnn[nH]1 [Example 130, 1-(2-(1H-tetrazol-5-yl)ethyl) 4-cyclooctyl 2-methylenesuccinate] | 16 | 164 | 29.1 | –
7 | C=C(CC(=O)O[C@H](C)CCCCCC)C(=O)OCCc1nnn[nH]1 [Example 135, (R)-1-(2-(1H-tetrazol-5-yl)ethyl) 4-octan-2-yl 2-methylenesuccinate] | 4.2 | 157 | 11.1 | –
8 | C=C(CC(=O)OC1CCCCCCC1)C(=O)OC1(CC(=O)OCC)COC1 [Example 137, 4-cyclooctyl 1-(3-(2-ethoxy-2-oxoethyl)oxetan-3-yl) 2-methylenesuccinate] | 5.7 | 96 | 4.2 | –
9 | C=C(CC(=O)OC1CCCCCCC1)C(=O)OC(CC(=O)O)C(F)(F)F (stereo not shown) [Example 144, 3-((4-(cyclooctyloxy)-2-methylene-4-oxobutanoyl)oxy)-4,4,4-trifluorobutanoic acid] | 1.7 | 176 | 2.1 | –
10 | C=C(CC(=O)OC1CCCCCC1)C(=O)OCC(=O)O [Example 145, 2-(4-(cycloheptyloxy)-2-methylene-4-oxobutanoyloxy)acetic acid] | – | – | – | IC50 ([1]; Homo sapiens, PMA-differentiated THP-1 cells, LPS 24 hr then Nigericin 1 hour): 19.3 µM; EC50 (NRF2; Homo sapiens, U2OS, 6 h): > 100 µM; Emax (NRF2; Homo sapiens, U2OS): 7%
11 | C=C(CC(=O)O[C@H]1[C@@H]2CC[C@H]1CN(S(C)(=O)=O)C2)C(=O)O[C@H]1[C@@H]2CC[C@H]1CN(S(C)(=O)=O)C2 [Example 156, bis((endo)-3-(methylsulfonyl)-3-azabicyclo[3.2.1]octan-8-yl) 2-methylenesuccinate] | – | – | – | IC50 [1]: 27.9 µM; EC50 (NRF2; U2OS PathHunter cells, 6 hours, GSH condition not stated in Table 5): 47.9 µM; NRF2 activation Emax (NRF2; normalised to dimethyl fumarate 'High' control, GSH condition not stated in Table 5): 63%
12 | C=C(CC(=O)OC(CCCC)CCCC)C(=O)OCC(=O)O [Example 175, 2-((2-methylene-4-(nonan-5-yloxy)-4-oxobutanoyl)oxy)acetic acid] | 7.6 | – | – | concentration at 0.083 h ([2]; 0.083 h, read-out: Parent compound concentrations following oral administration, Time 0.083 h): 39100 ng/mL; concentration at 0.25 h ([2]; 0.25 h, read-out: Parent compound concentrations following oral administration, Time 0.25 h): 19500 ng/mL; concentration at 0.5 h ([2]; 0.5 h, read-out: Parent compound concentrations following oral administration, Time 0.5 h): 18200 ng/mL; concentration at 1 h ([2]; 1 h, read-out: Parent compound concentrations following oral administration, Time 1 h): 5520 ng/mL; concentration at 2 h ([2]; 2 h, read-out: Parent compound concentrations following oral administration, Time 2 h): 1410 ng/mL; concentration at 4 h ([2]; 4 h, read-out: Parent compound concentrations following oral administration, Time 4 h): 2000 ng/mL; concentration at 6 h ([2]; 6 h, read-out: Parent compound concentrations following oral administration, Time 6 h): 784 ng/mL; concentration at 8 h ([2]; 8 h, read-out: Parent compound concentrations following oral administration, Time 8 h): 231 ng/mL; concentration at 24 h ([2]; 24 h, read-out: Parent compound concentrations following oral administration, Time 24 h): < 4 ng/mL; concentration at 0.05 h ([3]; time 0.05 h): 27500 ng/mL; concentration at 0.133 h ([3]; time 0.133 h): 11700 ng/mL; concentration at 0.25 h ([3]; time 0.25 h): 6110 ng/mL; concentration at 0.5 h ([3]; time 0.5 h): 1190 ng/mL; concentration at 1 h ([3]; time 1 h): 181 ng/mL; concentration at 2 h ([3]; time 2 h): 32 ng/mL; concentration at 4 h ([3]; time 4 h): < 4 ng/mL; concentration at 6 h ([3]; time 6 h): < 4 ng/mL; concentration at 8 h ([3]; time 8 h): < 4 ng/mL
